{"source": "patent US20190054051A1", "about": "“DOPA Formulations for Treatments of Parkinson's Disease” (The Board of Trustees of the Leland Stanford Junior …, priority 2017, published 2019)", "key": {"[1]": {"tested_on": "pERK, ChAT and H2R", "experiment": "Immunohistochemical co-localization of pERK, ChAT and H2R in striatum", "format": "in vivo, mice", "settings": "lesioned striatum", "experimental": "Immunohistochemical analysis was performed with commonly known procedures. Mice were transcardially perfused with ice-cold 4% paraformaldehyde in PBS 45 minutes after challenge with L-DOPA or DOPA-ranitidine formulations. The brain was dissected out, post-fixed in 4% PFA overnight at 4° C., and cryoprotected using 30% sucrose in PBS. Cryoprotected brains were stored at -80° C. For TH immunostaining 30 μm coronal sections were taken around both CPu and substantia nigra, to examine dopaminergic denervation at the level of striatum and neuronal cell body loss at the level of substantia nigra. For pERK, ChAT, FoxP and AFos B expression, only coronal sections at the level of striatum was used. Free-floating coronal sections were blocked in blocking buffer (PBS with 2% BSA, 0.3% TritonX-100) for 1 hr at room temperature with gentle rocking. Sections were then transferred to incubation solution (PBS with 1% BSA, 0.03% TritonX-100) and the respective primary antibody as shown in table 1 and incubated at 4° C. for 24-48 hrs with gentle shaking. The sections were mounted with fluorescein or DAPI containing mounting media and serial z stack images were taken using Zeiss laser scanning confocal microscope LSM 800 at Stanford Cell Sciences Imaging facility. […]"}, "[2]": {"tested_on": "p38", "experiment": "Western blot of phospho p38 and total p38 in striatum", "format": "in vivo, mice", "experimental": "After behavioral testing, mice again received their assigned injection and then, 45 minutes later, were decapitated under anesthesia. Tissue samples were processed as follows. Briefly, the brain was dissected, rapidly frozen on dry ice, and stored at −80° C. Striatal tissue was collected from 100 μm coronal slices cut at the level of striatum using a cryostat (Leica CM1950, Leica Biosystems Inc, Buffalo Groove, Ill.). Striatal samples from the intact and the lesioned hemisphere were separately collected in 150p1 of lysis solution (Totally RNA, Ambion, Austin, Tex.). Care was taken to make sure that the tissue samples were collected from similar regions in all the brain samples analyzed, since there are differences in the expression of GRKs from rostral to caudal CPu. […]\nWestern blots were quantified using band densitometry in Image J software (NIH version). […] Results are represented as group mean±SEM and analyzed using one-way or repeated-measures ANOVA (RM-ANOVA), with post hoc Bonferroni tests. The mouse cylinder test was analyzed with RM-ANOVA, with group (DOPA and DOPA-ranitidine formulations) as a between-group factor and saline vs. DOPA treatment as a within-group factor. AIMs scores were analyzed using the Kruskal Wallis test for pre-testing (DOPA injected animals) and the Mann-Whitney U test for the post-testing sessions (DOPA vs DOPA-ranitidine formulations). […]"}, "[3]": {"tested_on": "animal models of PD", "settings": "previously reported; cited from earlier work"}}}
{"smiles": "N[C@@H](Cc1ccc(O)c(O)c1)C(=O)O", "note": "[L-DOPA, L-3,4-dihydroxyphenylalanine]", "values": [{"measurement": "triple labeling of pERK, ChAT and H2R", "setting": "[1]", "result": "Occasional triple labeling"}, {"measurement": "p38 phosphorylation in the lesioned hemisphere", "setting": "[2]", "result": "increased in the lesioned hemisphere only after DOPA treatment"}]}
{"smiles": "CN/C(=C\\[N+](=O)[O-])NCCSCc1ccc(CN(C)C)o1", "note": "[Ranitidine, N-(2-[(5-[(dimethylamino)methyl]furan-2-yl)methylthio]ethyl)-N′-methyl-2-nitroethene-1,1-diamine]", "values": [{"measurement": "L-DOPA induced dyskinesia (dyskinetic behavior following DOPA treatment)", "setting": "[3]", "result": "suppress LID"}]}
